Assays:
[1] = test system: H1 (parent) callus; experiment: Callus growth test with chlorsulfuron and structural analogues; assay type: cell-based, Nicotiana tabacum; settings: 10 ppb compound, 2 weeks in the dark
Description: (§1) In these growth tests, petri dishes containing C1 agar medium and 10 ppb of the sulfonamide herbicide chlorsulfuron and Compounds A through E were prepared. A sterile filter paper disc was placed in the center of each plate, and inoculated with 250 mg of callus tissue homozygous for the S4 mutation, or callus tissue derived from the haploid parent H1. The resulting cultures were incubated at 25° in the dark for 2 weeks. At the conclusion of the incubation period, filter discs containing callus cells were removed from culture dishes, placed on a Buchner funnel, and gentle suction applied to remove excess water. The resulting callus mass was then carefully scraped from the filter disc and weighed. Four replicates were included in each experiment.

[2] = test system: S4/S4 callus; experiment: as above; assay type: cell-based, Nicotiana tabacum; settings: 10 ppb compound, 2 weeks in the dark
Description: as §1

[3] = test system: "resistant" regenerated plants; settings: paraquat 10^-5 M; cited from earlier work
[4] = test system: control plants; settings: paraquat 10^-5 M; cited from earlier work
[5] = test system: picloram-tolerant tobacco mutants; settings: cited from earlier work

Row | SMILES | Mean Fresh Weight [1] [g] | Mean Fresh Weight [2] [g] | further results
1 | COc1nc(NC(=O)NS(=O)(=O)c2ccccc2Cl)nc(OC)n1 [E] | 0 | 4.97 | 
2 | COc1cc(OC)nc(NC(=O)NS(=O)(=O)c2ccccc2Cl)n1 [C] | 0 | 5.08 | 
3 | C[n+]1ccc(-c2cc[n+](C)cc2)cc1 [paraquat] |  |  | time for leaves to bleach to white [3]: 4 to 7 days; time for leaves to bleach to white (average) [4]: 3.5 days
4 | COc1cc(C)nc(NC(=O)NS(=O)(=O)c2ccccc2Cl)n1 [B] | 0 | 5.60 | 
5 | Cc1nc(C)nc(NC(=O)NS(=O)(=O)c2ccccc2Cl)n1 [D] | 0 | 4.53 | 
6 | Cc1cc(C)nc(NC(=O)NS(=O)(=O)c2ccccc2Cl)n1 [A] | 0 | 5.16 | 
7 | Nc1c(Cl)c(Cl)nc(C(=O)O)c1Cl [picloram, 4-amino-3,5,6-trichloropicolinic acid] |  |  | seed germination ([5]; 100 μM picloram, seeds of tolerant mutants): germinated; plantlet development ([5]; one month's exposure to 50 μM picloram, plantlets homozygous for tolerance mutations): developed stem callus tissue and degenerated

Reference: US4774381A, “Herbicide resistant tobacco” (E. I. Du Pont de Nemours and Company, priority 1985, dated 1988)
